Experimental data from article PMC6151588, “Four Prenylflavone Derivatives with Antiplasmodial Activities from the Stem of Tephrosia purpurea subsp. leptostachya” (Molecules : A Journal of Synthetic Chemistry and Natural …, 2017).
Entries after “also recorded” stand apart in the source; their conditions may differ. Where two headings read alike, the source gives them in different places.

How the values were obtained:
[1] = test system: chloroquine-sensitive D6 strain of Plasmodium falciparum; experiment: In vitro antiplasmodial activity, non-radioactive (fluorescence-based) assay; assay type: cell-based; conditions: for IC50: Plasmodium falciparum; for Antiplasmodial activity in words: D6 strain of Plasmodium falciparum
Description: The pure compounds were assayed using a non-radioactive assay technique as described by […] al., 2004 [32] with modifications given in the literature.

[2] = MTT cytotoxicity assay, LO2; assay type: cell-based; conditions: human, LO2 cells (immortal hepatic cell line), non-tumoral cell
Description: (§1) A549, HepG2, and non-tumoral cells were all purchased from ATCC. Cells were cultured in RPMI 1640 medium supplemented with 10% fetal bovine serum and antibiotics penicillin (50 U/mL) and streptomycin (50 μg/mL; Invitrogen, Paisley, Scotland, UK). All cell cultures were incubated at 37 °C in a 5% humidified CO2 incubator. All tested compounds were dissolved in DMSO at a final concentration of 50 mmol/L and stored at −20 °C before use. Cytotoxicity was assessed by using the 3-(4,5-dimethylthiazol-2-yl)-2,5-diphenyltetrazolium bromide (MTT) (5.0 mg/mL) assay as previously described. Briefly, 4 × 10^3 cells per well were seeded in 96-well plates before drug treatments. After overnight culture, the cells were then exposed to different concentrations of selected compounds (0.039–100 μmol/L) for 72 h. Cells without drug treatment were used as the control. Subsequently, MTT (10 μL) solution was added to each well and incubated at 37 °C for 4 h followed by the addition of 100 μL solubilization buffer (10% SDS in 0.01 mol/L HCl) and overnight incubation. A570 nm was then determined in each well on the next day. The percentage of cell viability was calculated using the following formula: Cell viability (%) = Atreated/Acontrol × 100. Data were obtained from three independent experiments and the standard error was calculated.

[3] = MTT cytotoxicity assay, HepG2; assay type: cell-based; conditions: human, HepG2 cells (liver cancer cell line)
Description: as §1

[4] = MTT cytotoxicity assay, A549; assay type: cell-based; conditions: human, A549 cells (adenocarcinomic alveolar basal epithelial cells), cancer cell
Description: as §1

[5] = MTT cytotoxicity assay, BEAS; assay type: cell-based; conditions: human, non-tumoral cell
Description: as §1

[6] = test system: two non-tumoral and two cancerous cell-lines (LO2, BEAS, A549, HepG2); experiment: MTT cytotoxicity, summary over the four cell-lines; assay type: cell-based
Description: as §1

[7] = MTT cytotoxicity, summary over the four cell-lines; assay type: cell-based; conditions: human, two non-tumoral and two cancerous cell-lines; read-out: Cytotoxicity IC50 against four cell-lines
Description: as §1

[8] = D6 strain, in vitro, read-out: Antiplasmodial activity against P. falciparum D6, IC50

SMILES	IC50 ([1]; D6, read-out: Antiplasmodial activity against P. falciparum D6, IC50) [µM]	Antiplasmodial activity in words [1]	IC50 [1, 8] [µM]	IC50 at 72 h [2] [µM]	IC50 at 72 h [3] [µM]	IC50 at 72 h [4] [µM]	IC50 at 72 h [5] [µM]	Selectivity index ([6]; cytotoxicity versus antiplasmodial activity (D6))	IC50 ([6]; two non-tumoral and two cancerous cell-lines, read-out: Cytotoxicity IC50 against four cell-lines) [µM]	IC50 at 72 h [7] [µM]	melting point [°C]
CCN(CC)CCCC(C)Nc1ccnc2cc(Cl)ccc12 (stereo not drawn) [Chloroquine, reference compound]	0.037 ± 0.003	–	–	–	–	–	–	–	–	–	–
COc1cc(O)c2c(=O)cc(-c3ccccc3)oc2c1/C=C/C(C)(C)O [Compound 1, (E)-5-hydroxy-8-(3-hydroxy-3-methylbut-1-en-1-yl)-7-methoxy-2-phenyl-4H-chromen-4-one]	–	good activity; also recorded: the most active	1.7 ± 0.1	21.7 ± 4.8	> 100	76.1 ± 2.9	24.5 ± 2.7	> 12	> 21	21 to 100	–
COc1cc(O)c2c(=O)cc(-c3ccccc3)oc2c1/C=C/C(C)=O [Compound 2, (E)-5-hydroxy-7-methoxy-8-(3-oxobut-1-en-1-yl)-2-phenyl-4H-chromen-4-one]	–	–	–	> 100	> 100	> 100	> 100	–	–	–	–
COc1cc(OC(C)=O)c(C2COC(C)(C)C2=O)c2oc(-c3ccccc3)cc(=O)c12 (stereo not drawn) [Compound 4, 8-(5,5-dimethyl-4-oxotetrahydrofuran-3-yl)-5-methoxy-4-oxo-2-phenyl-4H-chromen-7-yl acetate]	–	low antiplasmodial activities	14.8 ± 3.2	> 100	> 100	> 100	> 100	–	–	–	210 to 214
COc1cc(OC)c2c(=O)cc(-c3ccccc3)oc2c1C1=COC(C)(C)C1=O [Compound 9, tachrosin]	–	low antiplasmodial activities	27.1 ± 3.2	> 100	> 100	> 100	> 100	–	–	–	–
